Assay results from patent US10633397B2, “Substituted polycyclic pyridone derivatives and prodrugs thereof” (priority 2015, dated 2020).

Columns and labels:
[1] = in vivo; conditions: oral vs intravenous administration, mice or SD rats, read-out: bioavailability (BA)
Description: Materials and Methods for Experiments to Evaluate Oral Absorption
(1) Experimental animals: mice or SD rats were used.
(2) Rearing condition: mice or SD rats were allowed free access to solid feed and sterilized tap water.
(3) Setting of dosage and grouping: Oral administration and intravenous administration were performed with the predetermined dosage. Grouping was set as below. (Dosage was changed per compound)
Oral administration 1 to 30 mg/kg (n=2 to 3)
Intravenous administration 0.5 to 10 mg/kg (n=2 to 3)
(4) Preparation of administration solutions: Oral administration was performed as solution or suspension. Intravenous administration was performed after solubilization.
(5) Routes of administration: Oral administration was performed mandatory into the stomach by oral sonde. […]
(6) Evaluation items: Blood was collected serially and concentration of a compound of the present invention in plasma was measured by LC/MS/MS.
(7) Statistical analysis: About transition of concentration of a compound of the present invention in plasma, the area under the plasma concentration versus time curve (AUC) was calculated by non-linear least-squares method program, WinNonlin (a registered trademark), and bioavailability (BA) of a compound of the present invention was calculated from AUCs of the oral administration group and the intravenous administration group. […]

[2] = Plasma concentration after oral administration of prodrug Compound II-6; type: in vivo; conditions: after oral administration of Compound II-6 to rat under non-fasting conditions, all plasma samples
Description: FIG. 1 is a result of measuring the plasma concentration of compound III-2, after oral administration of prodrug Compound II-6, the parent compound of which is Compound III-2, to rat under non-fasting conditions.
FIG. 2 is a result of measuring the plasma concentration of compound II-6, after oral administration of prodrug Compound II-6, the parent compound of which is Compound III-2, to rat under non-fasting conditions.
FIGS. 1 and 2 show a result of measuring the plasma concentration of Compound III-2 and Compound II-6 after oral administration of prodrug Compound II-6, the parent compound of which is Compound III-2, to rat under non-fasting conditions.
Therefore, prodrug Compound II-6, the parent compound of which is Compound III-2 is found to have changed promptly to Compound III-2 in vivo after administration (see FIG. 2).

[3] = biological target: cap-dependent endonuclease (RNP fraction, PB1-PB2-PA complex) (Influenza A virus, UniProt P15659); experiment: Measurement of cap-dependant endonuclease (CEN) inhibitory activity; type: biochemical; conditions: RNP from A/WSN/33 virus, room temperature 60 minutes; read-out: CEN_IC50
[4] = tested on: influenza virus; experiment: CPE inhibitory effect confirming assay; type: cell-based; conditions: unidentified influenza virus, 72 h, read-out: CPE_EC50

For `COC(=O)OCOc1c2n(ccc1=O)N([C@@H]1c3ccccc3SCc3c1ccc(F)c3F)[C@@H]1COCCN1C2=O` [II-6], the bioavailability [1] was 14.9% and the “concentration of Compound II-6 in plasma” value [2] was “a determination limit or less”.
Work on `O=C1c2c(O)c(=O)ccn2N([C@H]2c3ccccc3CSc3ccccc32)[C@@H]2CCCCN12` [III-25] yielded an IC50 [3] of 2.96 nM and an EC50 [4] of 2.35 nM.
In the case of `O=C1c2c(O)c(=O)ccn2N([C@@H]2c3ccccc3SCc3c2ccc(F)c3F)[C@@H]2C[C@@H](C(F)(F)F)CCN12` [III-26], the IC50 [3] is reported as 1.63 nM and the EC50 [4] is reported as 3 nM.
`O=C1c2c(O)c(=O)ccn2N([C@@H]2c3ccccc3SCc3c2cccc3C(F)(F)F)[C@@H]2CCCCN12` [III-27] showed an IC50 [3] of 4.19 nM and an EC50 [4] of 3.61 nM.
Work on `C[C@H]1COC[C@@H]2N1C(=O)c1c(O)c(=O)ccn1N2[C@@H]1c2cccc(F)c2SCc2cccc(F)c21` [III-28] yielded an IC50 [3] of 10.7 nM and an EC50 [4] of 5.67 nM.
For `O=C1c2c(O)c(=O)ccn2N([C@@H]2c3ccccc3SCc3c2ccc(F)c3F)[C@@H]2CC3(CCN12)COC3` [III-29], the IC50 [3] was 0.87 nM and the EC50 [4] was 0.66 nM.
With `C[C@H]1COC[C@@H]2N1C(=O)c1c(O)c(=O)ccn1N2[C@@H]1c2ccccc2SCc2cccc(F)c21` [III-31] the IC50 [3] was 18.5 nM and the EC50 [4] was 3.17 nM.
`C[C@H]1COC[C@@H]2N1C(=O)c1c(O)c(=O)ccn1N2[C@H]1c2ccccc2CSc2ccccc21` [III-32] showed an IC50 [3] of 27.6 nM and an EC50 [4] of 7.23 nM.
`O=C1c2c(O)c(=O)ccn2N([C@@H]2c3ccccc3SCc3c2ccc(F)c3F)[C@@H]2CCC(F)(F)CN12` [III-34] showed an IC50 [3] of 4.69 nM and an EC50 [4] of 2.85 nM.
`CC1(C)CC[C@@H]2N(C1)C(=O)c1c(O)c(=O)ccn1N2[C@@H]1c2ccccc2SCc2c1ccc(F)c2F` [III-35] showed an IC50 [3] of 3.86 nM and an EC50 [4] of 3 nM.
With `O=C1c2c(O)c(=O)ccn2N([C@@H]2c3ccccc3SCc3c2ccc(F)c3F)[C@@H]2CO[C@H](C(F)(F)F)CN12` [III-37] the IC50 [3] was 4.24 nM and the EC50 [4] was 3.43 nM.
With `O=C1c2c(O)c(=O)ccn2N([C@@H]2c3ccccc3SCc3c2ccc(F)c3F)[C@@H]2C[C@H](C(F)(F)F)CCN12` [III-38] the IC50 [3] was 8.26 nM and the EC50 [4] was 4.04 nM.
In the case of `CO[C@@H]1CCN2C(=O)c3c(O)c(=O)ccn3N([C@@H]3c4ccccc4SCc4c3ccc(F)c4F)[C@@H]2C1` [III-39], the IC50 [3] is reported as 2.75 nM and the EC50 [4] is reported as 2.81 nM.
With `C[C@H]1CC[C@@H]2N(C1)C(=O)c1c(O)c(=O)ccn1N2[C@@H]1c2ccccc2SCc2c1ccc(F)c2F` [III-40] the IC50 [3] was 2.99 nM and the EC50 [4] was 2.95 nM.
In the case of `C[C@@H]1CCN2C(=O)c3c(O)c(=O)ccn3N([C@@H]3c4ccccc4SCc4c3ccc(F)c4F)[C@@H]2C1` [III-41], the IC50 [3] is reported as 2.1 nM and the EC50 [4] is reported as 2.17 nM.
Work on `C[C@@H]1CC[C@@H]2N(C1)C(=O)c1c(O)c(=O)ccn1N2[C@@H]1c2ccccc2SCc2c1ccc(F)c2F` [III-42] yielded an IC50 [3] of 3.93 nM and an EC50 [4] of 2.64 nM.
`O=C1c2c(O)c(=O)ccn2N([C@H]2c3ccc(F)cc3CSc3ccccc32)[C@@H]2C[C@H](C(F)(F)F)CCN12` [III-43] showed an IC50 [3] of 3.9 nM and an EC50 [4] of 3.18 nM.
`O=C1c2c(O)c(=O)ccn2N([C@@H]2c3ccccc3SCc3cccc(F)c32)[C@@H]2CC(F)(F)CCN12` [III-44] gave an IC50 [3] of 3.81 nM and an EC50 [4] of 3.68 nM.
With `CC1(C)CCN2C(=O)c3c(O)c(=O)ccn3N([C@@H]3c4ccccc4SCc4cccc(F)c43)[C@@H]2C1` [III-45] the IC50 [3] was 1.63 nM and the EC50 [4] was 3.07 nM.
`O=C1c2c(O)c(=O)ccn2N([C@H]2c3ccc(F)cc3CSc3ccccc32)[C@@H]2CC(F)(F)CCN12` [III-46] gave an IC50 [3] of 2.91 nM and an EC50 [4] of 3.18 nM.
With `CC1(C)CCN2C(=O)c3c(O)c(=O)ccn3N([C@H]3c4ccc(F)cc4CSc4ccccc43)[C@@H]2C1` [III-47] the IC50 [3] was 2.25 nM and the EC50 [4] was 2.53 nM.
`O=C1c2c(O)c(=O)ccn2N([C@@H]2c3ccccc3SCc3cccc(F)c32)[C@@H]2CC3(CCN12)CC3` [III-48] gave an IC50 [3] of 3.49 nM and an EC50 [4] of 3.57 nM.
`C[C@@H]1CCN2C(=O)c3c(O)c(=O)ccn3N([C@@H]3c4ccccc4SCc4cccc(F)c43)[C@@H]2C1` [III-49] showed an IC50 [3] of 6.79 nM and an EC50 [4] of 4.17 nM.
Work on `C[C@@H]1CCN2C(=O)c3c(O)c(=O)ccn3N([C@H]3c4ccc(F)cc4CSc4ccccc43)[C@@H]2C1` [III-50] yielded an IC50 [3] of 2.55 nM and an EC50 [4] of 4.36 nM.
`C[C@H]1CN2C(=O)c3c(O)c(=O)ccn3N([C@@H]3c4ccccc4SCc4c3ccc(F)c4F)[C@@H]2CO1` [III-51] gave an IC50 [3] of 2.22 nM and an EC50 [4] of 2.58 nM.
`C[C@H]1CN2C(=O)c3c(O)c(=O)ccn3N([C@H]3c4ccc(F)cc4CSc4ccccc43)[C@@H]2CO1` [III-52] showed an IC50 [3] of 3.62 nM and an EC50 [4] of 3.28 nM.
In the case of `O=C1c2c(O)c(=O)ccn2N([C@@H]2c3ccccc3SCc3cccc(F)c32)[C@@H]2CCCCN12` [III-53], the IC50 [3] is reported as 2.46 nM and the EC50 [4] is reported as 3 nM.
With `O=C1c2c(O)c(=O)ccn2N([C@H]2c3ccc(F)cc3CSc3ccccc32)[C@@H]2CC3(CCN12)CC3` [III-55] the IC50 [3] was 2.13 nM and the EC50 [4] was 3.45 nM.
Work on `O=C1c2c(O)c(=O)ccn2N(C2c3ccccc3CCc3ccccc32)[C@@H]2COCCN12` [III-56] yielded an IC50 [3] of 6.64 nM and an EC50 [4] of 4.99 nM.
Work on `O=C1c2c(O)c(=O)ccn2N([C@H]2c3ccc(F)cc3CSc3ccccc32)[C@@H]2C[C@@H](C(F)(F)F)CCN12` [III-57] yielded an IC50 [3] of 4.27 nM and an EC50 [4] of 3.47 nM.
`C[C@@H]1CC[C@@H]2N(C1)C(=O)c1c(O)c(=O)ccn1N2[C@H]1c2ccc(F)cc2CSc2ccccc21` [III-58] gave an IC50 [3] of 2.65 nM and an EC50 [4] of 3.13 nM.
With `O=C1c2c(O)c(=O)ccn2N([C@@H]2c3ccccc3SCc3c2ccc(F)c3F)[C@@H]2CCCCN12` [III-59] the IC50 [3] was 0.57 nM and the EC50 [4] was 3.11 nM.
